Data from patent US20100317593A1, “2,3-DIHYDRO-1H-INDENE COMPOUNDS” (ASTRAZENECA AB, priority 2009, published 2010).

Biological target: T1, Glutathione-S-transferase tagged Bir3 domain of cIAP1 (L250-G350) (Homo sapiens, UniProt Q13490)
T1 construct: The cIAP1 Bir3 domain construct (aa L250-G350) was prepared from a full length cIAP1 clone; made in house; host or cells: Escherichia coli BL21 (DE3), pGEX-6P-1 vector
Assay: Fluorescence polarization assay, cIAP1 Bir3 domain
Type: binding
Settings: 20 nM cIAP1-Bir3, 2.5 nM AbuRPF-K-5FAM tracer, 20-minute incubation
Method: Materials: The cIAP1 Bir3 domain construct (aa L250-G350) was prepared from a full length cIAP1 clone (NCBI Reference Sequence: NM_001166.3). PCR was used to generate the Bir3 fragment which was inserted into a pGEX-6P-1 vector (GE LifeSciences) as a BamHI/XhoI fragment. Protein was prepared in Escherichia coli BL21 (DE3) grown at 37° C. containing ampicillin to an OD600 of 0.6. Protein expression was induced by 1 mM isopropyl β-D-1-thiogalactopyranoside (IPTG) for 3.75 hours.
Cells were lysed by sonication in buffer containing 100 mM Tris (pH 7.5), 150 mM NaCl, 5 mm dithiothreitol (DTT), 50 μM zinc acetate (ZnAc), ethylenediamine tetraacetic acid (EDTA) free Complete protease inhibitors (Roche Applied Science), 100 μg/mL lysozyme, and 0.5% Triton-X100. DNAse was added to the mixture after sonication. Proteins were purified from the soluble fraction using Glutathione Sepharose 4B resin (GE Lifesciences) followed by desalting on a PD-10 column (GE Lifesciences). This was followed by purification over an SEC 200 resin (GE Lifesciences). Final storage buffer consisted of 25 mM Tris, pH 7.5, 200 mM NaCl, 5 mM DTT, 50 uM ZnAc, 10% glycerol.
The fluorescence polarization assay was developed using Glutathione-S-transferase tagged Bir3 domain of cIAP1 (L250-G350). The tracer used was a synthetic peptide conjugated to 5-carboxyfluorescein (AbuRPF-K-5FAM).
Methods: Dilutions of cIAP1-Bir3 (20 nM) were added to 2.5 nM of fluorescent peptide tracer in assay buffer (final concentrations of 20 mM HEPES, pH 7.5, 1 mM DTT, 0.005% Tween-20 and 50 mM NaCl) containing various dilutions of binding inhibitors. Samples were read by a Tecan Ultra Evolution (Tecan US Inc, Durham N.C.) after a 20-minute incubation.
Fluorescence polarization values were plotted as a function of the antagonist concentration and the IC50 values were determined.

T1 sequence (Q13490 250-350): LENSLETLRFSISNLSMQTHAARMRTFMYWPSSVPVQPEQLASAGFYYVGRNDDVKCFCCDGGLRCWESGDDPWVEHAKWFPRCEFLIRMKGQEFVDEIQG

| SMILES | IC50 [nM] |
| --- | --- |
| CN[C@@H](C)C(=O)N[C@H](C(=O)N1CCC[C@H]1C(=O)N[C@H]1c2ccccc2C[C@H]1OCC#CC#CCO[C@@H]1Cc2ccccc2[C@@H]1NC(=O)[C@@H]1CCCN1C(=O)[C@@H](NC(=O)[C@H](C)NC)C1CCCCC1)C1CCCCC1 [Example 1, (S,S,2S,2′S)-N,N′-((1S,1′S,2R,2′R)-2,2′-(hexa-2,4-diyne-1,6-diylbis(oxy))bis(2,3-dihydro-1H-indene-2,1-diyl))bis(1-((S)-2-cyclohexyl-2-((S)-2-(methylamino)propanamido)acetyl)pyrrolidine-2-carboxamide)] | 12 |
| C#CCO[C@@H]1Cc2ccccc2[C@@H]1NC(=O)[C@@H]1CCCN1C(=O)[C@@H](NC(=O)[C@H](C)NC)C1CCCCC1 [Example 2, (S)-1-((S)-2-cyclohexyl-2-((S)-2-(methylamino)propanamido)acetyl)-N-((1S,2R)-2-(prop-2-ynyloxy)-2,3-dihydro-1H-inden-1-yl)pyrrolidine-2-carboxamide] | 15 |
| CN[C@@H](C)C(=O)N[C@H](C(=O)N1CCC[C@H]1C(=O)N[C@H]1c2ccccc2C[C@H]1OCCCCCCO[C@@H]1Cc2ccccc2[C@@H]1NC(=O)[C@@H]1CCCN1C(=O)[C@@H](NC(=O)[C@H](C)NC)C1CCCCC1)C1CCCCC1 [Example 3, (S,S,2S,2′S)-N,N′-((1S,1′S,2R,2′R)-2,2′-(Hexane-1,6-diylbis(oxy))bis(2,3-dihydro-1H-indene-2,1-diyl))bis(1-((S)-2-cyclohexyl-2-((S)-2-(methylamino)propanamido)acetyl)pyrrolidine-2-carboxamide)] | 13 |
| CN[C@@H](C)C(=O)N[C@H](C(=O)N1CCC[C@H]1C(=O)N[C@H]1c2ccccc2C[C@@H]1OCC#CC#CCO[C@H]1Cc2ccccc2[C@@H]1NC(=O)[C@@H]1CCCN1C(=O)[C@@H](NC(=O)[C@H](C)NC)C1CCCCC1)C1CCCCC1 [Example 4, (S,S,2S,2′S)-N,N′-((1S,1′S,2S,2′S)-2,2′-(hexa-2,4-diyne-1,6-diylbis(oxy))bis(2,3-dihydro-1H-indene-2,1-diyl))bis(1-((S)-2-cyclohexyl-2-((S)-2-(methylamino)propanamido)acetyl)pyrrolidine-2-carboxamide)] | 42.9 |
